Data as given in the NIST ThermoML archive (doi:10.1016/j.jct.2018.11.004).
Numbers after ± are expanded uncertainties.

Test: molar heat capacity at constant pressure

CC(C)[C@@H]1CC[C@@H](C)C[C@H]1O [L-menthol]
Settings	molar heat capacity at constant pressure [J/K/mol]
230 K, 101.33 kPa, Crystal 1, Small (less than 1 g) adiabatic calorimetry	191.1 ± 1.1
235 K, 101.33 kPa, Crystal 1, Small (less than 1 g) adiabatic calorimetry	194.9 ± 1.1
240 K, 101.33 kPa, Crystal 1, Small (less than 1 g) adiabatic calorimetry	198.7 ± 1.1
245 K, 101.33 kPa, Crystal 1, Small (less than 1 g) adiabatic calorimetry	202.5 ± 1.1
250 K, 101.33 kPa, Crystal 1, Small (less than 1 g) adiabatic calorimetry	206.5 ± 1.1
255 K, 101.33 kPa, Crystal 1, Small (less than 1 g) adiabatic calorimetry	210.7 ± 1.1
260 K, 101.33 kPa, Crystal 1, Small (less than 1 g) adiabatic calorimetry	215.1 ± 1.2
265 K, 101.33 kPa, Crystal 1, Small (less than 1 g) adiabatic calorimetry	219.5 ± 1.2
265.2 K, 100 kPa, Crystal 1, Extra sensitive DSC	221.5 ± 8.6
270 K, 100 kPa, Crystal 1, Extra sensitive DSC	225.6 ± 8.7
270 K, 101.33 kPa, Crystal 1, Small (less than 1 g) adiabatic calorimetry	223.9 ± 1.2
275 K, 100 kPa, Crystal 1, Extra sensitive DSC	230 ± 8.9
275 K, 101.33 kPa, Crystal 1, Small (less than 1 g) adiabatic calorimetry	228.2 ± 1.2
280 K, 100 kPa, Crystal 1, Extra sensitive DSC	235.1 ± 9.1
280 K, 101.33 kPa, Crystal 1, Small (less than 1 g) adiabatic calorimetry	232.4 ± 1.2
285 K, 100 kPa, Crystal 1, Extra sensitive DSC	240.5 ± 9.3
285 K, 101.33 kPa, Crystal 1, Small (less than 1 g) adiabatic calorimetry	236.7 ± 1.2
290 K, 100 kPa, Crystal 1, Extra sensitive DSC	246.3 ± 9.5
290 K, 101.33 kPa, Crystal 1, Small (less than 1 g) adiabatic calorimetry	241.5 ± 1.3
295 K, 100 kPa, Crystal 1, Extra sensitive DSC	253.1 ± 9.8
295 K, 101.33 kPa, Crystal 1, Small (less than 1 g) adiabatic calorimetry	246.7 ± 1.3
298.15 K, 101.33 kPa, Crystal 1, Small (less than 1 g) adiabatic calorimetry	250.1 ± 1.3
300 K, 101.33 kPa, Crystal 1, Small (less than 1 g) adiabatic calorimetry	252.3 ± 1.3
305 K, 101.33 kPa, Crystal 1, Small (less than 1 g) adiabatic calorimetry	258.3 ± 1.3
310 K, 101.33 kPa, Crystal 1, Small (less than 1 g) adiabatic calorimetry	264.6 ± 1.4
315 K, 101.33 kPa, Crystal 1, Small (less than 1 g) adiabatic calorimetry	271.4 ± 1.4
315.6 K, 101.33 kPa, Crystal 1, Small (less than 1 g) adiabatic calorimetry	272.3 ± 1.4

Liquid
Settings	molar heat capacity at constant pressure [J/K/mol]
315.6 K, 101.33 kPa, Small (less than 1 g) adiabatic calorimetry	376.1 ± 1.9
320 K, 101.33 kPa, Small (less than 1 g) adiabatic calorimetry	383.1 ± 1.9
325 K, 101.33 kPa, Small (less than 1 g) adiabatic calorimetry	390.8 ± 2
325.9 K, 100 kPa, Extra sensitive DSC	395.1 ± 15
330 K, 100 kPa, Extra sensitive DSC	401.1 ± 16
330 K, 101.33 kPa, Small (less than 1 g) adiabatic calorimetry	398.1 ± 2
335 K, 100 kPa, Extra sensitive DSC	408 ± 16
335 K, 101.33 kPa, Small (less than 1 g) adiabatic calorimetry	404.9 ± 2.1
340 K, 100 kPa, Extra sensitive DSC	414.3 ± 16
340 K, 101.33 kPa, Small (less than 1 g) adiabatic calorimetry	411.3 ± 2.1
345 K, 100 kPa, Extra sensitive DSC	420.5 ± 16
345 K, 101.33 kPa, Small (less than 1 g) adiabatic calorimetry	417.1 ± 2.2
350 K, 100 kPa, Extra sensitive DSC	426.2 ± 16
350 K, 101.33 kPa, Small (less than 1 g) adiabatic calorimetry	422.3 ± 2.2
355 K, 100 kPa, Extra sensitive DSC	430.8 ± 17
355 K, 101.33 kPa, Small (less than 1 g) adiabatic calorimetry	427 ± 2.2
360 K, 101.33 kPa, Small (less than 1 g) adiabatic calorimetry	431 ± 2.2
365 K, 101.33 kPa, Small (less than 1 g) adiabatic calorimetry	434.3 ± 2.2
370 K, 101.33 kPa, Small (less than 1 g) adiabatic calorimetry	437 ± 2.2
